Common to all, as to assay: relative viability (nuclei count vs DMSO), 5 days (fraction); higher = more cells survive
Compound in the assay “SGI-1776 + Crizotinib”: CN1CCC(CNc2ccc3ncc(-c4cccc(OC(F)(F)F)c4)n3n2)CC1 [SGI-1776] + C[C@@H](Oc1cc(-c2cnn(C3CCNCC3)c2)cnc1N)c1c(Cl)ccc(F)c1Cl [Crizotinib] (partner 1 µM)
Summed up:
(§1)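 Dosing by pin tool came one day after lung cancer cell lines were seeded in 1536-well plates, using either one drug or a fixed anchor-drug dose plus five library-drug doses (not always all listed) in √10 steps. After 5 days, nuclei were counted on 4× images. Relative viability is treated-well nuclei count divided by vehicle-well nuclei count, and values are medians of duplicate plates.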

Compound in the assay “SGI-1776 + Alpelisib”: CN1CCC(CNc2ccc3ncc(-c4cccc(OC(F)(F)F)c4)n3n2)CC1 [SGI-1776] + Cc1nc(NC(=O)N2CCC[C@H]2C(N)=O)sc1-c1ccnc(C(C)(C)C(F)(F)F)c1 [Alpelisib] (partner 2 µM)
Summed up:
as §1

Compound in assay [1]: C1COCCN1C2=NC(=NC3=C2OC4=C3C=CC=N4)C5=CC(=CC=C5)NC(=O)C6=CN=C(C=C6)N + Cc1nc(NC(=O)N2CCC[C@H]2C(N)=O)sc1-c1ccnc(C(C)(C)C(F)(F)F)c1 [Alpelisib] (partner 2 µM)
Summed up: as §1

Compound in the assay “Entinostat + Alpelisib”: Nc1ccccc1NC(=O)c1ccc(CNC(=O)OCc2cccnc2)cc1 [Entinostat] + Cc1nc(NC(=O)N2CCC[C@H]2C(N)=O)sc1-c1ccnc(C(C)(C)C(F)(F)F)c1 [Alpelisib] (partner 2 µM)
Summed up:
as §1

With SK-MES-1, the relative viability in the assay with SGI-1776 + Crizotinib (first compound 0.08 µM) was found to be 1.11; with SGI-1776 + Crizotinib (first compound 0.8 µM), 0.947; in the assay with SGI-1776 + Crizotinib (first compound 2.53 µM), 1.02; with SGI-1776 + Crizotinib (first compound 8 µM), 0.979; with SGI-1776 + Alpelisib (first compound 0.08 µM), 0.896; in the assay with SGI-1776 + Alpelisib (first compound 0.8 µM), 0.897. The relative viability was 1.01 with SGI-1776 + Alpelisib (first compound 2.53 µM); 0.647 with SGI-1776 + Alpelisib (first compound 8 µM); 0.949 in assay [1] (first compound 0.02 µM); 1.07 in assay [1] (first compound 0.06325 µM); 0.984 in assay [1] (first compound 0.2 µM); 0.971 in assay [1] (first compound 0.6325 µM). Moreover, the relative viability in assay [1] (first compound 2 µM) worked out at 0.724; with Entinostat + Alpelisib (first compound 0.02 µM), 0.932; with Entinostat + Alpelisib (first compound 0.06325 µM), 1.02; with Entinostat + Alpelisib (first compound 0.2 µM), 1.05; in the assay with Entinostat + Alpelisib (first compound 0.6325 µM), 0.81; in the assay with Entinostat + Alpelisib (first compound 2 µM), 0.682.

In the case of SW 1573, the relative viability in the assay with SGI-1776 + Crizotinib (first compound 0.08 µM) stood at 0.904; with SGI-1776 + Crizotinib (first compound 0.8 µM) it was 0.835; with SGI-1776 + Crizotinib (first compound 2.53 µM) it was 0.624; in the assay with SGI-1776 + Crizotinib (first compound 8 µM), 0.395; with SGI-1776 + Alpelisib (first compound 0.08 µM) it was 0.666; in the assay with SGI-1776 + Alpelisib (first compound 0.8 µM) it was 0.763. Besides, the relative viability with SGI-1776 + Alpelisib (first compound 2.53 µM) was 0.906; in the assay with SGI-1776 + Alpelisib (first compound 8 µM) it was 0.581; in assay [1] (first compound 0.02 µM), 0.659; in assay [1] (first compound 0.06325 µM) it was 0.912; in assay [1] (first compound 0.2 µM), 0.734; in assay [1] (first compound 0.6325 µM) it was 0.699. Also, the relative viability was 0.576 in assay [1] (first compound 2 µM); 0.672 with Entinostat + Alpelisib (first compound 0.02 µM); 0.665 with Entinostat + Alpelisib (first compound 0.06325 µM); 1.04 with Entinostat + Alpelisib (first compound 0.2 µM); 0.819 with Entinostat + Alpelisib (first compound 0.6325 µM); 0.83 in the assay with Entinostat + Alpelisib (first compound 2 µM).

The record behind these values is the supplement of paper PMC10307832.
